Legend:
Assay type in all cases: physicochemical
[1] = Solubility of solubilized capsule formulations in FaSSIF at 37° C.; conditions: FaSSIF pH 6.5, 37° C.
[2] = Aqueous solubility of the active compound; conditions: water; at about room temperature
[3] = Solubility of solubilized capsule formulations in SGF at 37° C.
[4] = Solubility of solubilized capsule formulations in FeSSIF at 37° C.; conditions: FeSSIF pH 5.0, 37° C.

With `NC(=O)[C@@H](CCC(F)(F)F)N(Cc1ccc(-c2ncon2)cc1F)S(=O)(=O)c1ccc(Cl)cc1` [Active Compound, (2R)-2-[[(4-chlorophenyl)sulfonyl][[2-fluoro-4-(1,2,4-oxadiazol-3-yl)phenyl]methyl]amino]-5,5,5-trifluoropentanamide] the “ACTIVE COMPOUND Concentration” value ([1]; 5 Min.) was 2.5 µg/mL, the “ACTIVE COMPOUND Concentration” value ([1]; 15 Min.) was 3.8 µg/mL and the “ACTIVE COMPOUND Concentration” value ([1]; 24 Hr.) was 7.7 µg/mL. The “ACTIVE COMPOUND Concentration” value ([1]; 30 Min.) was 4.6 µg/mL, the “ACTIVE COMPOUND Concentration” value ([1]; 60 Min.) was 6.0 µg/mL and the solubility [2] was less than 1 µg/mL. For the same compound, the “ACTIVE COMPOUND Concentration” value ([3]; 5 Min.) was 0.0 µg/mL, the “ACTIVE COMPOUND Concentration” value ([3]; 15 Min.) was 4.6 µg/mL and the “ACTIVE COMPOUND Concentration” value ([3]; 24 Hr.) was 1.0 µg/mL. For the same compound, the “ACTIVE COMPOUND Concentration” value ([3]; 30 Min.) was 1.6 µg/mL, the “ACTIVE COMPOUND Concentration” value ([3]; 60 Min.) was 1.0 µg/mL and the “ACTIVE COMPOUND Concentration” value ([4]; 5 Min.) was 9.7 µg/mL. The “ACTIVE COMPOUND Concentration” value ([4]; 15 Min.) was 11.5 µg/mL, the “ACTIVE COMPOUND Concentration” value ([4]; 30 Min.) was 13.3 µg/mL and the “ACTIVE COMPOUND Concentration” value ([4]; 60 Min.) was 15.3 µg/mL.
